Data set [1] can be described thus: Microsomal stability in mouse liver microsomes assessed as half life at […] and measured upto 60 mins by LC-MS/MS analysis. It is filed as ADME, Microsome. A general note: Microsomes from liver hold many membrane-bound enzymes, among them those of drug oxidation.
Data set [2] concerns HCT-116. Kind of data set: Cytotoxicity against Wnt-dependent human HCT-116 cells assessed as reduction in cell viability at 10 to 20 uM by LDH release assay. Particulars: hct-116, 20 µM, dose 10-20 µM. The class given is toxicity, cell-based. In general terms: Release of lactate dehydrogenase indicates damage to the cell membrane.
Data set [3] has as its system HCT-116. In words: Induction of apoptosis in Wnt-dependent human HCT-116 cells assessed as early apoptotic cells at 20 uM incubated for 24 hrs by Annexin V-Alexa Fluor 647/PI staining based flow cytomtery (Rvb=14.3%). It is filed as functional.
Data set [4] deals with CT26. In words: Induction of apoptosis in Wnt-dependent mouse CT26 cells assessed as late apoptotic cells at 10 uM incubated for 24 hrs by Annexin V-Alexa Fluor 647/PI staining based flow cytomtery (Rvb=9.96%). The class given is functional.
Data set [5] deals with CT26. Kind of data set: Induction of apoptosis in Wnt-dependent mouse CT26 cells assessed as late apoptotic cells at 20 uM incubated for 24 hrs by Annexin V-Alexa Fluor 647/PI staining based flow cytomtery (Rvb=9.96%). The class given is functional.
For data set [6], the system named is CT26. In words: Induction of apoptosis in Wnt-dependent mouse CT26 cells assessed as early apoptotic cells at 10 uM incubated for 24 hrs by Annexin V-Alexa Fluor 647/PI staining based flow cytomtery (Rvb=18.3%). It is filed as functional.
The subject of data set [7] is CT26. In words: Induction of apoptosis in Wnt-dependent mouse CT26 cells assessed as viable cells at 10 uM incubated for 24 hrs by Annexin V-Alexa Fluor 647/PI staining based flow cytomtery (Rvb=70.7%). The class given is functional. Particulars: read-out: Activity.
Data set [8] deals with HCT-116. In words: Antiproliferative activity against Wnt-dependent human HCT-116 cells assessed as cell growth inhibition incubated for 48 hrs by CellTiter-Glo assay. The class given is functional, cell-based. Background: In ATP-based viability assays light output follows the ATP content of the culture.
For a further data set, the system named is RKO. In words: Antiproliferative activity against Wnt-independent human RKO cells assessed as cell growth inhibition at 40 uM incubated for 48 hrs by CellTiter-Glo assay. It is filed as functional, cell-based.
The test system of data set [9] is CT26. Kind of data set: Antitumor activity against mouse CT26 cells xenografted in BALB/c mouse assessed as tumor growth inhibition at 30 mg/kg, ip QD and measured upto 9 days in presence of anti-PD-1 antibody cotreatment at 10 mg/kg,ip BIW. The conditions noted are these: CT26, 216 h, time <= 9 day, read-out: TGI. It is filed as functional.
For data set [10], the system named is CT26. Kind of data set: Antitumor activity in mouse CT26 cells xenografted in BALB/c mouse assessed as increase in IFNG mRNA expression level in tumor at 30 mg/kg, ip QD by qRT-PCR analysis. It is filed as functional, organism-based.
Data set [11] has as its system CT26. Kind of data set: cells. The conditions noted are these: Mus musculus, CT26, 48 h.

SMILES strings stand for the structures. Calls of active or inactive are those of the source. The calls are words filed in the database; no cut-off is given here.

One may read the half-life as the time in which the quantity being followed falls by half. As a reminder, the IC50 is the concentration that gives 50% inhibition. Low values mean inhibition by little substance, high ones a need for much substance. Consider `CC(C)c1ccc(-c2cccc(S(=O)(=O)N3CCCC(c4cccc(OC(C)(C)C(=O)NS(=O)(=O)c5ccc(C(F)(F)F)cc5)c4)C3)c2)cc1` (configuration not stated), for which, in data set [1], the half-life was 20.9 min. For the same compound, the Activity result in the data set on HCT-116 [2] is given as “Non-Toxic”; with HCT-116 [3], 26.4%; with CT26 [4], 30.2%; in the data set with CT26 [5] it was 52.6%; in the data set on CT26 [6] it was 24%. Besides, the viability at 10 µM in the data set with CT26 [7] came out at 43.8%. Further, the outcome in the data set on HCT-116 [8] and in the data set with CT26 [10] was Active. Also, the outcome in the data set on RKO was inactive. In addition, in the data set with CT26 [9], the inhibition in vivo at 30 mg/kg was determined as 81.1%. Further, the IC50 in the data set on CT26 [11] turned out to be 69.7 µM.

The record behind these values is ChEMBL document CHEMBL5316313, “Discovery of Novel 3-Phenylpiperidine Derivatives Targeting the β-Catenin/B-Cell Lymphoma 9 Interaction as a Single Agent and in Combination with the Anti-PD-1 Antibody for the Treatment of Colorectal Cancer” (J Med Chem, 2023).
